Consider 3 sequences from paper PMC9710782, “Plantaricin NC8 αβ rapidly and efficiently inhibits flaviviruses and SARS-CoV-2 by disrupting their envelopes” (PLOS ONE, 2022).

The test system of one experiment is LGTV. The arrangement: species or system Langat virus.
Experiment [1] relates to Langat virus strain TP21 (LGTV). It counts as cell-based. The settings on record: n = 4.
In the next experiment the test system is IAV (H1N1/CApdm09). The experiment can be described thus: Influenza A virus inhibition (plaque) assay. The following applies: read-out: concentration required to suppress IAV (by 50%). It counts as cell-based.
For a further experiment, the system named is SARS-CoV-2. Nature of the experiment: SARS-CoV-2 virus inhibition (plaque) assay. The format is cell-based, Severe Acute Respiratory Syndrome Coronavirus 2. The following applies: read-out: concentration for 50% reduction of PFU / viral load (SARS-CoV-2).

As for “DLTTKLWSSWGYYLGKKARWNLKHPYVQF [D-PLNC8 α]”, in the experiment with LGTV, the “permeabilization of LGTV particles (Sytox Green staining), single peptide” value was “not as efficient”.

On to “LLGDFFRKSKEKIGKEFKRIVQRIKDFLRNLVPRTES [LL-37, human cathelicidin-derived antimicrobial peptide used as a control, reference compound]”, for which, in experiment [1], the “effect on virus infectivity (LGTV viral load)” value is listed as “did not affect virus infectivity”.

Turning to “SVPTSVYTLGIKILWSAYKHRKTIEKSFNKGFYH [D-PLNC8 β]”, the IC50 with IAV (H1N1/CApdm09) and in the experiment on SARS-CoV-2 was about 500 nM each time. Moreover, the “permeabilization of LGTV particles (Sytox Green staining), single peptide” value in the experiment with LGTV is “permeabilized”.
